Experimental findings from patent US5955440A, “Macrolide LHRH antagonists” (Abbott Laboratories, priority 1998, dated 1999) are described below.

For the experiment, the target named is T1, LHRH rat pituitary receptor (Rattus norvegicus, UniProt P30969).
T1 construct: from tissue; host or cells: rat pituitary
T1 sequence (P30969 1-327): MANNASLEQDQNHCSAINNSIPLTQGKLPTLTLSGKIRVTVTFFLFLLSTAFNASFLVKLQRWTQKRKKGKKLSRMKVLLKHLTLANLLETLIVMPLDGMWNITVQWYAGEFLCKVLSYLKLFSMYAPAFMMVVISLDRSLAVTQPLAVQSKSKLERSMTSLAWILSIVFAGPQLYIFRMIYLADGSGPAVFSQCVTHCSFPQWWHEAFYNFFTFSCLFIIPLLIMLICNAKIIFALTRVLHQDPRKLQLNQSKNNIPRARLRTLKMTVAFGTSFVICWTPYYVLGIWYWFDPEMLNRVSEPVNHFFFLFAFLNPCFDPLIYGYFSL
The experiment can be described thus: LHRH rat pituitary receptor binding (pKI). Conditions: negative logarithm of the equilibrium dissociation constants; for Ki: Table 1, read-out: receptor binding affinity (pKI) (converted). As to the method:
Representative compounds of the present invention were evaluated in in vitro tests for LHRH rat pituitary receptor binding (pKI) and for LH inhibition from rat pituitary cells for antagonist potency (pA2). The tests employed the methods detailed in F. Haviv, et al. J. Med. Chem., 32: 2340-2344 (1989). The receptor binding affinity (pKI) is the negative logarithm of the equilibrium dissociation constants.

The structures appear in SMILES notation.

Regarding `CC[C@H]1OC(=O)[C@H](C)[C@@H](O[C@H]2C[C@@](C)(OC)[C@@H](O)[C@H](C)O2)[C@H](C)[C@@H](O[C@@H]2O[C@H](C)C[C@H](N(C)CCCc3cccc(C)n3)[C@H]2O)[C@](C)(OC)C[C@@H](C)C(=O)[C@H](C)[C@H]2N(CCc3ccc(F)c(Cl)c3)C(=O)O[C@]12C` [Example 87, 3'-N-Desmethyl-3'-N-[3-(6-methyl-2-pyridyl)propyl]-11-deoxy-11-[carboxy-(3-chloro-4-fluorophenethylamino)]-6-O-methyl-erythromycin A 11,12-(cyclic carbamate)], the Ki was 2.24 nM. Still for that read-out and setting: the figure for `CC[C@H]1OC(=O)[C@H](C)[C@@H](O[C@H]2C[C@@](C)(OC)[C@@H](O)[C@H](C)O2)[C@H](C)[C@@H](O[C@@H]2O[C@H](C)C[C@H](N(C)C(C)C)[C@H]2O)[C@](C)(OC)C[C@@H](C)C(=O)[C@H](C)[C@H]2N(CC3(c4ccc(Cl)c(Cl)c4)CC3)C(=O)O[C@]12C` [Example 10, 3'-N-Desmethyl-3'-N-isopropyl-11-deoxy-11-[carboxy-(α,α-cyclopropyl-3,4-dichlorophenethylamino)]-6-O-methyl-erythromycin A 11,12-(cyclic carbamate)] is 1.74 nM; for `CC[C@H]1OC(=O)[C@H](C)[C@@H](O[C@H]2C[C@@](C)(OC)[C@@H](O)[C@H](C)O2)[C@H](C)[C@@H](O[C@@H]2O[C@H](C)C[C@H](N(C)CCCc3ccccn3)[C@H]2O)[C@](C)(OC)C[C@@H](C)C(=O)[C@H](C)[C@H]2N(CCc3ccc(F)c(Cl)c3)C(=O)O[C@]12C` [Example 82, 3'-N-Desmethyl-3'-N-[3-(2-pyridyl)propyl]-11-deoxy-11-[carboxy-(3-chloro-4-fluorophenethylamino)]-6-O-methyl-erythromycin A 11,12-(cyclic carbamate)] it is 2.29 nM; for `CC[C@H]1OC(=O)[C@H](C)[C@@H](O[C@H]2C[C@@](C)(OC)[C@@H](O)[C@H](C)O2)[C@H](C)[C@@H](O[C@@H]2O[C@H](C)C[C@H](N(C)Cc3ncc[nH]3)[C@H]2O)[C@](C)(OC)C[C@@H](C)C(=O)[C@H](C)[C@H]2N(CCc3ccc(Cl)c(Cl)c3)C(=O)O[C@]12C` [Example 63, 3'-N-Desmethyl-3'-N-(2-imidazolyl)methyl-11-deoxy-11-[carboxy-(3,4-dichlorophenethylamino)]-6-O-methyl-erythromycin A 11,12-(cyclic carbamate)] it is 7.41 nM. Same read-out and setting: for `CC[C@H]1OC(=O)[C@H](C)[C@@H](O[C@H]2C[C@@](C)(OC)[C@@H](O)[C@H](C)O2)[C@H](C)[C@@H](O[C@@H]2O[C@H](C)C[C@H](N(C)Cc3ccc([N+](=O)[O-])s3)[C@H]2O)[C@](C)(OC)C[C@@H](C)C(=O)[C@H](C)[C@H]2N(CCc3ccc(Cl)c(Cl)c3)C(=O)O[C@]12C` [Example 66, 3'-N-Desmethyl-3'-N-[(5-nitro-2-thienyl]methyl-11-deoxy-11-[carboxy-(3,4-dichlorophenethylamino)]-6-O-methyl-erythromycin A 11,12-(cyclic carbamate)] the value was 1.38 nM. `CC[C@H]1OC(=O)[C@H](C)[C@@H](O[C@H]2C[C@@](C)(OC)[C@@H](O)[C@H](C)O2)[C@H](C)[C@@H](O[C@@H]2O[C@H](C)C[C@H](N(C)CCCCc3ccncc3)[C@H]2O)[C@](C)(OC)C[C@@H](C)C(=O)[C@H](C)[C@H]2N(CCc3ccc(Cl)c(Cl)c3)C(=O)O[C@]12C` [Example 78, 3'-N-Desmethyl-3'-N-[4-(4-pyridyl)butyl]-11-deoxy-11-[carboxy-(3,4-dichlorophenethylamino)]-6-O-methyl-erythromycin A 11,12-(cyclic carbamate)]: the Ki was 7.94 nM.

With `CC[C@H]1OC(=O)[C@H](C)[C@@H](O[C@H]2C[C@@](C)(OC)[C@@H](O)[C@H](C)O2)[C@H](C)[C@@H](O[C@@H]2O[C@H](C)C[C@H](N(C)C3CCCC3)[C@H]2O)[C@](C)(OC)C[C@@H](C)C(=O)[C@H](C)[C@H]2N(CCNc3ccc(Cl)cc3)C(=O)O[C@]12C` [Example 61], the Ki is 2.69 nM. In the case of `CC[C@H]1OC(=O)[C@H](C)[C@@H](O[C@H]2C[C@@](C)(OC)[C@@H](O)[C@H](C)O2)[C@H](C)[C@@H](O[C@@H]2O[C@H](C)C[C@H](N(C)CCCc3cccnc3)[C@H]2O)[C@](C)(OC)C[C@@H](C)C(=O)[C@H](C)[C@H]2N(CCc3ccc(F)c(Cl)c3)C(=O)O[C@]12C` [Example 80, 3'-N-Desmethyl-3'-N-[3-(3-pyridyl)propyl]-11-deoxy-11-[carboxy-(3-chloro-4-fluorophenethylamino)]-6-O-methyl-erythromycin A 11,12-(cyclic carbamate)], the Ki was 3.98 nM. On to `CC[C@H]1OC(=O)[C@H](C)[C@@H](O[C@H]2C[C@@](C)(OC)[C@@H](O)[C@H](C)O2)[C@H](C)[C@@H](O[C@@H]2O[C@H](C)C[C@H](N(C)Cc3ccc(C)c4ccccc34)[C@H]2O)[C@](C)(OC)C[C@@H](C)C(=O)[C@H](C)[C@H]2N(CCc3ccc(Cl)c(Cl)c3)C(=O)O[C@]12C` [Example 73, 3'-N-Desmethyl-3'-N-(4-methyl-1-napthylmethyl)-11-deoxy-11-[carboxy-(3,4-dichlorophenethylamino)]-6-O-methyl-erythromycin A 11,12-(cyclic carbamate)], for which the Ki was 0.214 nM. Still for that read-out and setting: the figure for `CC[C@H]1OC(=O)[C@H](C)[C@@H](O[C@H]2C[C@@](C)(OC)[C@@H](O)[C@H](C)O2)[C@H](C)[C@@H](O[C@@H]2O[C@H](C)C[C@H](N(C)CCCC(F)(F)F)[C@H]2O)[C@](C)(OC)C[C@@H](C)C(=O)[C@H](C)[C@H]2N(CCc3ccc(F)c(Cl)c3)C(=O)O[C@]12C` [Example 51, 3'-N-Desmethyl-3'-N-(4,4,4-trifluorobutyl)-11-deoxy-11-[carboxy-(3-chloro-4-fluorophenethylamino)]-6-O-methyl-erythromycin A 11,12-(cyclic carbamate)] is 6.31 nM.

For the molecule `CC[C@H]1OC(=O)[C@H](C)[C@@H](O[C@H]2C[C@@](C)(OC)[C@@H](O)[C@H](C)O2)[C@H](C)[C@@H](O[C@@H]2O[C@H](C)C[C@H](N(C)CCC3CC3)[C@H]2O)[C@](C)(OC)C[C@@H](C)C(=O)[C@H](C)[C@H]2N(CCc3ccc(Cl)cc3)C(=O)O[C@]12C` [Example 38, 3'-N-Desmethyl-3'-N-[2-(cyclopropyl)-ethyl]-11-deoxy-11-[carboxy-(4-chlorophenethylamino)]-6-O-methyl-erythromycin A 11,12-(cyclic carbamate)], the “receptor binding affinity (pKI)” value (Table 1) is 8.17. As for `CCCN(C)[C@H]1C[C@@H](C)O[C@@H](O[C@@H]2[C@@H](C)[C@H](O[C@H]3C[C@@](C)(OC)[C@@H](O)[C@H](C)O3)[C@@H](C)C(=O)O[C@H](CC)[C@@]3(C)OC(=O)N(CCc4ccc5c(c4)OCCO5)[C@@H]3[C@@H](C)C(=O)[C@H](C)C[C@@]2(C)OC)[C@@H]1O` [Example 54, 3'-N-Desmethyl-3'-N-propyl-11-deoxy-11-[carboxy-[3 4-(1,4-dioxano)phenethylamino)]}-6-O-methyl-erythromycin A 11,12-(cyclic carbamate)], the Ki is 4.07 nM. For `CC[C@H]1OC(=O)[C@H](C)[C@@H](O[C@H]2C[C@@](C)(OC)[C@@H](O)[C@H](C)O2)[C@H](C)[C@@H](O[C@@H]2O[C@H](C)C[C@H](N(C)C3CCCC3)[C@H]2O)[C@](C)(OC)C[C@@H](C)C(=O)[C@H](C)[C@H]2N(CCc3ccc(OC)c(Br)c3)C(=O)O[C@]12C` [Example 42, 3'-N-Desmethyl-3'-N-cyclopentyl-11-deoxy-11-[carboxy-(3-bromo-4-methoxyphenethylamino)]-6-O-methyl-erythromycin A 11,12-(cyclic carbamate)], the Ki was 7.24 nM. On to `CC[C@H]1OC(=O)[C@H](C)[C@@H](O[C@H]2C[C@@](C)(OC)[C@@H](O)[C@H](C)O2)[C@H](C)[C@@H](O[C@@H]2O[C@H](C)C[C@H](N(C)C3CCCC3)[C@H]2O)[C@](C)(OC)C[C@@H](C)C(=O)[C@H](C)[C@H]2N(CCc3ccc4c(c3)OCO4)C(=O)O[C@]12C` [Example 15, 3'-N-Desmethyl-3'-N-cyclopentyl-11-deoxy-11[carboxy-(3,4-dioxolanophenethylamino)]-6-O-methyl-erythromycin A 11,12-(cyclic carbamate)], for which the Ki was 6.31 nM. For `CC[C@H]1OC(=O)[C@H](C)[C@@H](O[C@H]2C[C@@](C)(OC)[C@@H](O)[C@H](C)O2)[C@H](C)[C@@H](O[C@@H]2O[C@H](C)C[C@H](N(C)CC3CC3)[C@H]2O)[C@](C)(OC)C[C@@H](C)C(=O)[C@H](C)[C@H]2N(CCc3ccc(Cl)cc3)C(=O)O[C@]12C` [Example 37, 3'-N-Desmethyl-3'-N-(cyclopropylmethyl)-11-deoxy-11-[carboxy-(4-chlorophenethylamino)]-6-O-methyl-erythromycin A 11,12-(cyclic carbamate)], the Ki is 9.12 nM. The same measure, in the same setting: for `CC[C@H]1OC(=O)[C@H](C)[C@@H](O[C@H]2C[C@@](C)(OC)[C@@H](O)[C@H](C)O2)[C@H](C)[C@@H](O[C@@H]2O[C@H](C)C[C@H](N(C)Cc3cccnc3)[C@H]2O)[C@](C)(OC)C[C@@H](C)C(=O)[C@H](C)[C@H]2N(CCc3ccc(Cl)c(Cl)c3)C(=O)O[C@]12C` [Example 64, 3'-N-Desmethyl-3'-N-(3-pyridyl)methyl-11-deoxy-11-[carboxy-(3,4-dichlorophenethylamino)]-6-O-methyl-erythromycin A 11,12-(cyclic carbamate)] the value was 6.92 nM.
